# Measured values reported in ChEMBL document CHEMBL1147380, “Studies on the acetogenins of Formosan annonaceous plants. II. Cytotoxic acetogenins from Annona reticulata” (1993).
# How the values were obtained:
# Type in all cases: functional
# P388 = test: Cytotoxicity against mouse P388 cells; conditions: for EC50: Mus musculus, P388, read-out: ED50 (the source's name)
# HT-29 = test: Cytotoxicity against human HT-29 cells; conditions: for EC50: Homo sapiens, HT-29, read-out: ED50 (the source's name)
# KB = test: Cytotoxicity against human KB cells; conditions: for EC50: Homo sapiens, KB, read-out: ED50 (the source's name)
# A549 = test: Cytotoxicity against human A549 cells; conditions: for EC50: Homo sapiens, A549, read-out: ED50 (the source's name)
# MCF7 = test: Cytotoxicity against human MCF7 cells; conditions: for EC50: Homo sapiens, MCF7, read-out: ED50 (the source's name)
SMILES,EC50 (HT-29),EC50 (A549),EC50 (P388),EC50 (KB),other results
CCCCCCCCCCCC[C@@H](O)[C@H]1CC[C@H]([C@H](O)CCCC[C@H](O)CCCCC[C@@H](O)CC2=CC(C)OC2=O)O1 (some centres not stated) [ANNONACIN],3 µg/mL,0.001 µg/mL,,,ED50 (P388): 1 ×10⁻⁵ ug/ml; ED50 (KB): 1 ×10⁻⁴ ug/ml
CCCCCCCCCCCC[C@H](O)[C@@H]1CC[C@@H]([C@@H](O)CCCCCCCCCCCCCCC2=CC(C)OC2=O)O1 (some centres not stated) [RETICULATACIN],4.66 µg/mL,3.49 µg/mL,,,EC50 (MCF7): 2.91 µg/mL
CCCCCCCCCCCC[C@H](O)[C@@H]1CC[C@@H]([C@@H](O)CCCCCC(O)CCCCC2CC(CC(C)=O)C(=O)O2)O1 (some centres not stated) [ISOANNORETICUIN],3.06 µg/mL,0.4 µg/mL,3.6 µg/mL,6.96 µg/mL,
CCCCCCCCCCCC[C@@H](O)[C@H]1CC[C@H]([C@H](O)CCCCCCCCCCCCC2=C[C@H](C)OC2=O)O1 [REL-SOLAMIN],,,0.04 µg/mL,0.3 µg/mL,
CCCCCCCCCCCC[C@@H](O)[C@H]1CC[C@H]([C@H](O)CCCCC(=O)CCCCC[C@@H](O)CC2=C[C@H](C)OC2=O)O1 [ANNONACINONE],1 µg/mL,0.1 µg/mL,,0.01 µg/mL,ED50 (P388): 1 ×10⁻⁶ ug/ml
CCCCCCCCCCCC[C@H](O)[C@@H]1CC[C@@H]([C@@H](O)CCCCCC(=O)CCCCC2CC(CC(C)=O)C(=O)O2)O1 (some centres not stated) [SQUAMONE],,1.34 µg/mL,5.6 µg/mL,1.5 µg/mL,EC50 (MCF7): 2.14 µg/mL
CCCCCCCCCCCC[C@H](O)[C@@H]1CC[C@@H]([C@@H](O)CCCCC(=O)CCCCCC2CC(CC(C)=O)C(=O)O2)O1 (some centres not stated) [ISOANNONACINONE],0.009 µg/mL,0.07 µg/mL,0.5 µg/mL,,
CCCCCCCCCC[C@@H](O)[C@@H]1CC[C@@H]([C@@H]2CC[C@@H]([C@H](O)CCCCCCCCCC(O)CC3=CC(C)OC3=O)O2)O1 (stereo in doubt; 13) [BULLATACIN],,,,,ED50 (HT-29): <1 ×10⁻³ ug/ml; ED50 (A549): <1 ×10⁻⁵ ug/ml; ED50 (MCF7): <1 ×10⁻⁵ ug/ml
CCCCCCCCCC[C@@H](O)[C@@H]1CC[C@@H]([C@@H]2CC[C@@H]([C@H](O)CCCCCCCCCC(O)CC3=CC(C)OC3=O)O2)O1 (stereo in doubt; 7) [BULLATACIN],,0.001 µg/mL,,10 µg/mL,
CCCCCCCCCCCC[C@H](O)[C@@H]1CC[C@@H]([C@@H](O)CCCCC(O)CCCCCC2CC(CC(C)=O)C(=O)O2)O1 (some centres not stated) [ISOANNONACIN],0.002 µg/mL,0.02 µg/mL,3 µg/mL,,
CCCCCCCCCCCC[C@H](O)[C@@H]1CC[C@@H]([C@@H](O)CC(O)CCCCC(O)CCCC(O)CC2=CC(C)OC2=O)O1 (some centres not stated) [ANNOMONICIN],,,0.24 µg/mL,2.29 µg/mL,
CCCCCCCCCCCC[C@H](O)[C@@H]1CC[C@@H]([C@@H](O)CCCCCC(O)CCCCC(O)CC2=CC(C)OC2=O)O1 (some centres not stated) [ANNORETICUIN],2.28 µg/mL,0.4 µg/mL,1 µg/mL,3.37 µg/mL,
CCCCCCCCCCCC[C@H](O)[C@@H]1CC[C@@H]([C@@H](O)CCCCCC(=O)CCCCC(O)CC2=CC(C)OC2=O)O1 (some centres not stated),1.32 µg/mL,0.01 µg/mL,0.2 µg/mL,4.66 µg/mL,
